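Values below derive from 48-hour exposures of cells grown in 96-well plates, with endpoints linearly interpolated between the two concentrations bracketing the appropriate inhibition level. At the GI50, growth is halved.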 Active and inactive are the calls of the source. Rule as the data show it: active = GI50 up to about 1.1 µM and inactive = higher.
Key:
Experiment in all cases: inhibition of tumour cell growth, NCI panel, 48 h
NCI-H23 = tested on: NCI-H23
KM12 = tested on: KM12
786-0 = tested on: 786-0
SW-620 = tested on: SW-620
SR = tested on: SR
A549 = tested on: A549
SF-268 = tested on: SF-268
SK-MEL-2 = tested on: SK-MEL-2
HCT-116 = tested on: HCT-116
UACC-257 = tested on: UACC-257
OVCAR-4 = tested on: OVCAR-4
NCI/ADR-RES = tested on: NCI/ADR-RES
EKVX = tested on: EKVX
HT-29 = tested on: HT-29
PC-3 = tested on: PC-3
DU-145 = tested on: DU-145
IGROV-1 = tested on: IGROV-1
CAKI-1 = tested on: CAKI-1
T47D = tested on: T47D

SMILES	GI50 (NCI-H23)	GI50 (KM12)	GI50 (786-0)	GI50 (SW-620)	GI50 (SR)	GI50 (A549)	GI50 (SF-268)	GI50 (SK-MEL-2)	GI50 (HCT-116)	GI50 (UACC-257)	GI50 (OVCAR-4)	GI50 (NCI/ADR-RES)	GI50 (EKVX)	GI50 (HT-29)	GI50 (PC-3)	GI50 (DU-145)	GI50 (IGROV-1)	GI50 (CAKI-1)	GI50 (T47D)
COc1ccc(CCN2COc3ccc4ccc(=O)oc4c3C2)cc1OC	> 100 µM (inactive)	> 100 µM (inactive)	> 100 µM (inactive)	24.2 µM (inactive)	24.3 µM (inactive)	> 100 µM (inactive)	60.4 µM (inactive)	> 100 µM (inactive)	66.5 µM (inactive)	> 100 µM (inactive)	> 100 µM (inactive)	> 100 µM (inactive)	> 100 µM (inactive)	78.5 µM (inactive)	> 100 µM (inactive)	> 100 µM (inactive)	> 100 µM (inactive)	> 100 µM (inactive)	> 100 µM (inactive)
CN1N=C(c2ccccc2)c2cc(Cl)ccc2N=C1N/N=C/c1ccc(N(C)C)cc1	> 100 µM (inactive)	> 100 µM (inactive)	> 100 µM (inactive)	> 100 µM (inactive)	49.2 µM (inactive)	> 100 µM (inactive)	> 100 µM (inactive)	–	> 100 µM (inactive)	> 100 µM (inactive)	> 100 µM (inactive)	> 100 µM (inactive)	> 100 µM (inactive)	> 100 µM (inactive)	58.5 µM (inactive)	> 100 µM (inactive)	> 100 µM (inactive)	> 100 µM (inactive)	> 100 µM (inactive)
O=C1C=CC(=O)c2c1ccc1c3ccccc3n(Cc3cccc([N+](=O)[O-])c3)c21	21.7 µM (inactive)	> 100 µM (inactive)	22.8 µM (inactive)	11.5 µM (inactive)	12.8 µM (inactive)	> 100 µM (inactive)	39.6 µM (inactive)	39.8 µM (inactive)	24.5 µM (inactive)	23 µM (inactive)	23.8 µM (inactive)	37.8 µM (inactive)	> 100 µM (inactive)	30.4 µM (inactive)	30.1 µM (inactive)	> 100 µM (inactive)	22.9 µM (inactive)	14.7 µM (inactive)	26.4 µM (inactive)
O=[N+]([O-])c1ccc(Oc2c(Cl)cc(S(=O)(=O)N/C(=N\O)Nc3ccc(Cl)cc3)cc2Cl)c(Cl)c1	17.7 µM (inactive)	13.7 µM (inactive)	14.7 µM (inactive)	24.9 µM (inactive)	10.7 µM (inactive)	17.1 µM (inactive)	13.6 µM (inactive)	17 µM (inactive)	13.4 µM (inactive)	15.6 µM (inactive)	11.7 µM (inactive)	21.7 µM (inactive)	14.8 µM (inactive)	16.9 µM (inactive)	13.3 µM (inactive)	13.6 µM (inactive)	–	14.8 µM (inactive)	13.1 µM (inactive)
CCCCC1C=Cn2c(=O)oc3c(OC(C)C)c(C)c(O)c1c32 (centres undefined)	1.48 µM (inactive)	1.49 µM (inactive)	1.16 µM (inactive)	0.904 µM (active)	0.548 µM (active)	1.84 µM (inactive)	0.796 µM (active)	1.66 µM (inactive)	0.977 µM (active)	2.44 µM (inactive)	0.601 µM (active)	0.993 µM (active)	2.48 µM (inactive)	2.7 µM (inactive)	2.43 µM (inactive)	0.652 µM (active)	1.88 µM (inactive)	0.409 µM (active)	1.85 µM (inactive)
CC(=O)N[C@@H](Cc1ccc(O)cn1)C(=O)NCc1cccc(F)c1	> 100 µM (inactive)	> 100 µM (inactive)	> 100 µM (inactive)	> 100 µM (inactive)	59.7 µM (inactive)	> 100 µM (inactive)	> 100 µM (inactive)	> 100 µM (inactive)	> 100 µM (inactive)	> 100 µM (inactive)	> 100 µM (inactive)	> 100 µM (inactive)	> 100 µM (inactive)	> 100 µM (inactive)	> 100 µM (inactive)	> 100 µM (inactive)	> 100 µM (inactive)	> 100 µM (inactive)	> 100 µM (inactive)
COC(=O)[C@H](CNC(=O)/C=C/c1ccc(OC(C)=O)c(OC(C)=O)c1)NC(=O)/C=C/c1ccc(OC(C)=O)c(OC(C)=O)c1	> 100 µM (inactive)	> 100 µM (inactive)	> 100 µM (inactive)	> 100 µM (inactive)	> 100 µM (inactive)	> 100 µM (inactive)	> 10 µM (inactive)	> 100 µM (inactive)	> 100 µM (inactive)	> 100 µM (inactive)	> 100 µM (inactive)	> 100 µM (inactive)	> 100 µM (inactive)	> 100 µM (inactive)	> 100 µM (inactive)	> 100 µM (inactive)	> 100 µM (inactive)	> 100 µM (inactive)	44.4 µM (inactive)
CC1(O)CC(C(F)(F)F)(C(F)(F)F)OC1=O (centres undefined)	> 10 µM (inactive)	> 10 µM (inactive)	> 10 µM (inactive)	> 10 µM (inactive)	> 10 µM (inactive)	> 10 µM (inactive)	> 10 µM (inactive)	–	> 10 µM (inactive)	> 10 µM (inactive)	> 10 µM (inactive)	> 10 µM (inactive)	> 10 µM (inactive)	> 10 µM (inactive)	> 10 µM (inactive)	> 10 µM (inactive)	> 10 µM (inactive)	> 10 µM (inactive)	> 10 µM (inactive)
C=C(C)[C@@]1(O[Si](C)(C)C)CCCC[C@@H]1CC(Sc1ccccc1)Sc1ccccc1	13.4 µM (inactive)	10.6 µM (inactive)	14.6 µM (inactive)	14.1 µM (inactive)	11.1 µM (inactive)	10.1 µM (inactive)	14.8 µM (inactive)	15 µM (inactive)	–	15.3 µM (inactive)	12.6 µM (inactive)	13.8 µM (inactive)	17.6 µM (inactive)	19.7 µM (inactive)	13.2 µM (inactive)	15 µM (inactive)	15.6 µM (inactive)	12.9 µM (inactive)	4.26 µM (inactive)
CC(CNC(=O)c1ccccc1)(CNC(=O)c1ccccc1)[N+](=O)[O-]	> 100 µM (inactive)	> 100 µM (inactive)	> 100 µM (inactive)	> 100 µM (inactive)	> 100 µM (inactive)	> 100 µM (inactive)	> 100 µM (inactive)	> 100 µM (inactive)	> 100 µM (inactive)	> 100 µM (inactive)	–	> 100 µM (inactive)	> 100 µM (inactive)	> 100 µM (inactive)	> 100 µM (inactive)	> 100 µM (inactive)	> 100 µM (inactive)	> 100 µM (inactive)	> 100 µM (inactive)
N[C@@H]1CCN(c2c(F)cc3c(=O)c(C(=O)O)cn4c3c2Oc2cc3c(ccc5ccccc53)cc2-4)C1	3.06 µM (inactive)	5.32 µM (inactive)	1.55 µM (inactive)	1.41 µM (inactive)	0.659 µM (active)	3.29 µM (inactive)	–	5.18 µM (inactive)	1.64 µM (inactive)	0.78 µM (active)	4.36 µM (inactive)	> 79.3 µM (inactive)	–	0.585 µM (active)	2.34 µM (inactive)	3.28 µM (inactive)	1.82 µM (inactive)	6.27 µM (inactive)	4.56 µM (inactive)
CC(=O)c1cc2c(Br)cccc2oc1=O	> 100 µM (inactive)	–	> 100 µM (inactive)	> 100 µM (inactive)	46.8 µM (inactive)	> 100 µM (inactive)	95.5 µM (inactive)	> 100 µM (inactive)	66.7 µM (inactive)	> 100 µM (inactive)	> 100 µM (inactive)	> 100 µM (inactive)	> 100 µM (inactive)	> 100 µM (inactive)	> 100 µM (inactive)	> 100 µM (inactive)	> 100 µM (inactive)	> 100 µM (inactive)	> 100 µM (inactive)
O=S1(=O)OCCCOS(=O)(=O)C1(Br)Br	> 100 µM (inactive)	> 100 µM (inactive)	> 100 µM (inactive)	> 100 µM (inactive)	> 100 µM (inactive)	> 100 µM (inactive)	> 100 µM (inactive)	> 100 µM (inactive)	> 100 µM (inactive)	> 100 µM (inactive)	> 100 µM (inactive)	> 100 µM (inactive)	> 100 µM (inactive)	> 100 µM (inactive)	> 100 µM (inactive)	> 100 µM (inactive)	–	> 100 µM (inactive)	> 100 µM (inactive)
CN1CCCCC(C#N)(c2ccccc2)CC1 (centres undefined)	> 100 µM (inactive)	> 100 µM (inactive)	> 100 µM (inactive)	> 100 µM (inactive)	> 100 µM (inactive)	> 100 µM (inactive)	> 100 µM (inactive)	–	> 100 µM (inactive)	> 100 µM (inactive)	> 100 µM (inactive)	> 100 µM (inactive)	> 100 µM (inactive)	> 100 µM (inactive)	> 100 µM (inactive)	> 100 µM (inactive)	> 100 µM (inactive)	> 100 µM (inactive)	> 100 µM (inactive)
C=C1C(C2(C)C=CC(=O)OC3(C)COC(=O)CC32)C(OC=O)C(OC(=O)C(O)C(C)CC)C2(C)C(c3ccoc3)CC(OC(C)=O)C12O (centres undefined)	> 100 µM (inactive)	34 µM (inactive)	> 100 µM (inactive)	> 100 µM (inactive)	38.9 µM (inactive)	> 100 µM (inactive)	> 100 µM (inactive)	64.3 µM (inactive)	49 µM (inactive)	> 100 µM (inactive)	–	> 100 µM (inactive)	> 100 µM (inactive)	32.8 µM (inactive)	39.2 µM (inactive)	> 100 µM (inactive)	93.5 µM (inactive)	> 100 µM (inactive)	> 100 µM (inactive)
